These results are taken from patent US11672802B2, “Induction of immune tolerance by using methotrexate” (Genzyme Corporation, priority 2011, dated 2023).

One data set relates to anti-alemtuzumab IgG. As to the kind of experiment: Anti-alemtuzumab IgG ELISA titers in huCD52 Tg mice.
Data set [1] deals with allogeneic heart transplant. In words: Murine allogeneic heart transplant model, graft survival. The class given is in vivo, mice (C57BL/6 donor, Balb/c recipient). The following applies: treatment alone. As to the method:
Polyclonal antibody mATG was administered as an intraperitoneal injection of 5 mg/kg every four weeks or as two 20 mg/kg doses given four days apart when in the transplant setting with the first dose given on the day of transplant (day 0).
C57BL/6 and BALB/c mice were obtained from Charles River (Kingston, N.Y. or Raleigh, N.C.) and used in these experiments between 8 and 13 weeks of age. The donor allogenic C57BL/6 mice were first anesthetized with an intraperitoneal injection of Ketamine (Fort Dodge Animal Health/Pfizer, Fort Dodge, Iowa) and Xylazine (Lloyd, Shenandoah, Iowa) and a median sternotomy was performed. […] The ascending aorta and pulmonary artery were then transected, the graft removed from the donor and the heart was stored in ice-cold saline until engraftment. A recipient mouse (Balb/c) was similarly anesthetized and prepped as described above for donor mice, except that the abdominal cavity was opened. […] After hemostasis was confirmed, the abdominal muscle was closed with a running 5-O Vicryl suture (Ethicon, Johnson & Johnson, Somerville, N.J.), and the skin closed with running 5-0 Ethilon suture (Ethicon). Standard post-op pain assessment and management was performed. Grafts were assessed by palpation 5-7 times per week for the first 30 day, and then 3-4 times per week until the end of the study.

Data set [2] relates to splenic B and T cell subsets. In words: Flow cytometry of splenic B and T cell subsets after rhGAA and methotrexate. Format: in vivo, mice. As to the method: 20 mg/kg of Myozyme® (Genzyme Corporation) was given by tail vein injection once or for 2-6 weekly doses, commencing with the first methotrexate dose. Animals were sacrificed weekly or daily after initiation of treatment. Spleen, mesenteric, and inguinal lymph nodes were collected for flow cytometric analysis of T and B cell subsets and sera was collected for ELISA assays. Spleens were processed between glass slides and red blood cells (RBC) was lysed with lysing buffer purchased from BD Biosciences (catalog#555899) according to the manufacturer's instructions. Lymph nodes were processed between glass slides and washed with phosphate buffered saline (PBS) containing 2% fetal calf serum (FCS). Cells were resuspended in 200 μL of PBS containing 4% fetal bovine serum and 25 μg/mL of total mouse IgG and blocked for 30 minutes at 4° C. Approximately 3 million spleens cells and 1 million lymph node cells were stained with different antibody cocktails and analyzed with a high through put sampler (HTS) on a Becton Dickinson CANTOII flow cytometer. At least 100,000 cell events were acquired within the lymphocyte gate. Anti-mouse antibody cocktails consisted of PE-CD21/35 catalog #552957, FITC-catalog #553138, PE-CD138 catalog #553714, PE-PE-Cy7-CD4 catalog #552775, FITC-CD3e catalog #553062, APC-CD11b catalog #553312, PE-Cy7-IgM catalog #552867, APC-Cy7-CD8 catalog #557654, PE-CD273 (PD-L2) catalog #557796, APC-CD138 catalog #558626, PE-Cy7-CD11b catalog #552850, PE-CD93 (early B lineage) catalog #558039, APC-CD69 catalog #560689, Pe-Cy7-CD24 catalog #560536, FITC-CD1d catalog #553845, APC-CD5 catalog #550035, and Percp-Cy5-7AAD catalog #559925, all purchased from BD Pharmingen. FITC-FoxP3 intracellular staining kit was purchased from eBioscience. Pacific Blue (PB)-CD25 catalog #102022, PB-CD23 catalog #101616 and PB-CD86 catalog #105022 were purchased from BioLegend. Analysis of lymphocyte subsets was performed with FCS express version 3 software provided by De Novo Software. Percentages were generated with the batch processing option and absolute numbers were calculated according to the cell counts obtained. Spleen and lymph node cell counts were obtained with a Beckman Coulter Vi-cell XR cell viability analyzer according to the manufacturer's instructions.
C57BL/6 (Jackson Laboratories) or E4GAAKO (Charles River) mice 8-12 weeks old were given 5 mg/kg of methotrexate (Calbiochem catalog #454125) by intraperitoneal injection for 1 cycle (3 consecutive daily doses) commencing with treatment with 20 mg/kg of rhGAA. For the 1D11 studies, animals were treated with intraperitoneal injections of 5 mg/kg of either 1D11 or 13C4 (Genzyme Corporation) 3 time per week, every other day, commencing with rhGAA and methotrexate treatment. Animals were sacrificed on day 6 or 7 post rhGAA initiation depending on the mouse strain. Spleens were prepared in single cell suspension and loaded onto the RoboSep (STEMCELL technologies) instrument according to the manufacturer's instructions and subjected to B cell negative selection. Purified B cells were seeded at 500,000 cells per well in 96 well round bottom plates (Costar catalog #3799) and either incubated with no stimulation or with 10 μg/mL of LPS (Sigma catalog #L5014) for 48 hours at 37° C. All wells received Monensin (BD Bioscience catalog #554724) according to the manufacturer's instructions. Cells were allowed to incubate for at least 4 hours at 37° C. Samples were transferred to V bottom wells (USA Scientific catalog #651201) and spun at 1200 rpm for 5 minutes at 4° C. Cells were resuspended in 200 μL of PBS containing 4% fetal bovine serum and 25 μg/ml of total mouse IgG and blocked for 30 minutes at 4° C.
(In general: Flow cytometry measures light scatter and fluorescence of single cells or particles in a stream.)

[3] abbreviates: methotrexate 1 mg/kg/day, three alemtuzumab treatment cycles.
Setting [4] is: Myozyme and methotrexate vs Myozyme alone.

From the text for anti-alemtuzumab IgG: Alemtuzumab-related studies employed human CD52 (huCD52) transgenic (Tg) mice between 6-12 weeks of age that were obtained from Charles River Laboratories/Genzyme Corp. Mice were housed and maintained in accordance with the Guide for Care and Use of Laboratory Animals and under American Association for Accreditation of Laboratory Animals Care I accreditation and all animal protocols used in these studies were approved by the Institutional Animals Care and Use Committee.
Monoclonal antibody alemtuzumab was administered intravenously as either a single injection of 0.5 mg/kg or in either a three or five day cycle of 0.5 mg/kg/day.
Methotrexate (Calbiochem catalog #454125) was administered at 0.5, 1.0, 2.0 or 5 mg/kg by intraperitoneal injection for 1-3 cycles, where each cycle equals either three, six or seven consecutive days of injection depending upon the experiment.
Mice were bled 4-6 days following alemtuzumab treatment and specific anti-alemtuzumab IgG was measured by ELISA. Briefly, 96-well plates (Corning Inc., Corning, N.Y., USA) were coated overnight with 3 μg/ml of alemtuzumab in PBS (pH 7.2). Following blocking with 0.1% BSA in PBS, serial dilutions of serum were added in duplicate to alemtuzumab-coated plates and incubated at 37° C. for 1 h. The plates were washed, and horseradish peroxidase-conjugated goat anti-mouse IgG secondary antibody (Southern Biotechnology Associates, Birmingham, Ala., USA) was added and allowed to incubate for 1 h at 37° C. Following a final wash, TMB substrate (BioFx, Owings Mills, Md., USA) was added and allowed to develop for 15 min at room temperature. The reaction was stopped by the addition of 1 N HCl and absorbance values were read at 450/650 nm on an ELISA plate reader (Molecular Devices, Sunnyvale, Calif., USA). End-point titers were defined as the antilog of the logarithmically transformed sample dilution interpolated at an absorbance value of 0.2 using Excel software (Microsoft, Redmond, Wash., USA).

Take `CN(Cc1cnc2nc(N)nc(N)c2n1)c1ccc(C(=O)N[C@@H](CCC(=O)O)C(=O)O)cc1` [methotrexate, Methotrexate]: the “reduction of anti-alemtuzumab responses” value with anti-alemtuzumab IgG (methotrexate 1 mg/kg, single three-dose cycle, five monthly alemtuzumab 0.5 mg/kg) was 88%. Moreover, in the data set with anti-alemtuzumab IgG (setting [3]), the “mice in which titers were controlled” value is reported as 7 of the 8 and the “reduction of anti-alemtuzumab titers” value is listed as 79%. Also, in the data set with anti-alemtuzumab IgG (methotrexate 2 mg/kg/day, three alemtuzumab treatment cycles), the “reduction of ADA, area under the effect curves” value stood at 98%. For the same compound, in the data set with anti-alemtuzumab IgG (methotrexate 5 mg/kg, single three-dose cycle, five monthly alemtuzumab 0.5 mg/kg), the “reduction of anti-alemtuzumab IgG responses” value was found to be 99%. In the data set on anti-alemtuzumab IgG (three daily doses 5 mg/kg/day methotrexate, 24 hours after fifth monthly alemtuzumab dose), the anti-alemtuzumab antibody titers result was “reduced”. Moreover, the “average extended graft survival” value in data set [1] came to 20 days. For the same compound, in data set [2] (setting [4]), the “IL-10, TGFbeta and FoxP3 mean fluorescence intensity in multiple cell subsets” value was “statistically significant increases”; the “number of B10 B cells expressing IL-10” value is reported as “increased”. Besides, the “activated B cell subsets (marginal zone, follicular, transitional 2 and 3)” value in data set [2] (following methotrexate treatment with rhGAA) was “significantly increased”. Besides, in data set [2] (methotrexate and Myozyme), the “numbers of FoxP3+ B cells” value is given as “increase”. Moreover, the “absolute cell numbers of IL-10, TGF-beta and FoxP3 expressing transitional 2, transitional 3 and follicular B cells” value in data set [2] (methotrexate vs Myozyme alone) is given as “increased”. For the same compound, the “numbers of TGF-beta-expressing B10 B cells” value in data set [2] (methotrexate-tolerized animals) was “increased”. Moreover, the “B10 regulatory B cell population” value in data set [2] (seven and eight days following Myozyme treatment) was “significant increases”. Also, in data set [2] (two cycles of Myozyme and methotrexate), the “activated T helper, T cytotoxic and T regulatory cell populations” value is “largely unchanged”.
